Measurements: PMC11983575, “Study on the synthesis and biological activity of kojic acid triazol thiosemicarbazide Schiff base derivatives” (Journal of Enzyme Inhibition and Medicinal Chemistry, 2025)

What was measured:
mushroom tyrosinase = mushroom tyrosinase (Agaricus bisporus, UniProt C7FF04); test: In vitro mushroom tyrosinase inhibition (L-DOPA substrate); type: biochemical; details: 475 nm, read-out: IC50 (μM) ± SD, inhibitory tyrosinase activity
Method: The mushroom tyrosinase inhibitory activity was determined according to previous described method. Briefly, 168 μl of phosphate buffer (0.1 M, pH 6.8), 10 μl of mushroom tyrosinase (0.5 mg/ml, Sigma Chemical, St. Louis, MO) and 2 μl of the inhibitor solution were placed in the wells of a 96-well micro plate. After pre-incubation for 20 min at 37 °C, 20 μl of 2.0 mg/ml L-DOPA (3,4-dihydroxyphenylalanine, Sigma Chemical, St. Louis, MO) was added and the enzyme activity was measured at 475 nm every 60 s for 180 s in a Microplate Reader (Bio-Rad Laboratories, Inc., Hercules, CA). Kojic acid and phosphate buffer were respectively used as positive and negative control. The extent of inhibition by the test compounds was expressed as the percentage of concentration necessary to achieve 50% inhibition (IC50). The percentage of inhibition was calculated as follows: inhibitory rate (%) = [Ac − At)/Ac] × 100. Ac is the absorbance of the negative control and At is the absorbance of the test compound. Each concentration was analysed in three independent experiments run in triplicate. The IC50 values were determined by the data analysis software GraphPad Prism 8 (La Jolla, CA).
The tyrosinase inhibition measurements of compounds 6a–6x were carried out using L-DOPA as substrate. Kojic acid was selected as a positive control compound. […]. […] Moreover, inhibitory activity of compound with hydroxyl group at papa position is better than the inhibitory activity of compound with hydroxyl group at meta position, and inhibitory activity of compound with hydroxyl group at meta position is better than the inhibitory activity of compound with hydroxyl group at ortho position. […]. […] In addition, with the increase of atomic radius, the inhibitory activity gradually decreases. (3) The inhibitory activity of alkoxy substituted compound is better than that of alkyl substituted compound. (4) Comparing the tyrosinase inhibitory activity of compounds with halogen atom (6b–6d, 6q–6s) and compounds with methyl or methoxy (6e–6f, 6t–6u), when the hydrogen (R^2) was replaced by the methyl (R^2), the inhibitory activity was decreased.

[1] = DPPH free radical scavenging activity assay; details: DPPH 150 μM, 30 min, 517 nm; read-out: DPPH/IC50 (μM) ± SD
Method: The anti-oxidation effect on DPPH radical was determined by a slightly modified version of a previously described DPPH radical scavenging assay. Reaction mixtures consisted of 100 μl of DPPH (150 μM), 20 μl of increasing concentration of test compounds and the volume was adjusted to 200 μl in each well with DMSO. The assay solution was then incubated at room temperature (25 °C) for 30 min in the dark. After the incubation, absorbance at 517 nm was measured by using UV-2600 spectrophotometer. The experiments were undertaken in triplicate. DMSO was used as a control. Ascorbic acid was used as antioxidant standard for comparison of the activity. The calculation of DPPH radical scavenging activity was followed by this formula: DPPH radical scavenging activity %=absorbance of standard−absorbance of sample/Absorbance of standard×100

[2] = ABTS radical cation scavenging activity assay; details: 734 nm; read-out: ABTS+/IC50 (μM) ± SD
Method: ABTS free radical scavenging activity was performed according to the procedure described by Zhang et al.[40] Test solution of ABTS decolourisation assay was prepared by mixing 2.45 mM potassium persulfate and 7 mM ABTS at 8:12 volume/volume ratio. The working solution was kept in the dark at room temperature for 12–18 h. Before ABTS radical scavenging test, the ABTS test solution was diluted with DMSO to absorbance of 0.7 (±0.02) at 734 nm. One millilitre of diluted ABTS test solution was added to 10 μl of DMSO or test sample. After initial mixing, the working solution was kept in the dark at room temperature for 2–6 min, and the absorbance was measured at 734 nm. This test was carried out in triplicate. DMSO was used as a control. Ascorbic acid was used as antioxidant standard for comparison of the activity. The absorbance of test samples was calculated by the following formula. ABTS scavenging ability %=absorbance of standard−absorbance of sample/absorbance of standard×100.

mushroom tyrosinase, sequence (C7FF04 1-392): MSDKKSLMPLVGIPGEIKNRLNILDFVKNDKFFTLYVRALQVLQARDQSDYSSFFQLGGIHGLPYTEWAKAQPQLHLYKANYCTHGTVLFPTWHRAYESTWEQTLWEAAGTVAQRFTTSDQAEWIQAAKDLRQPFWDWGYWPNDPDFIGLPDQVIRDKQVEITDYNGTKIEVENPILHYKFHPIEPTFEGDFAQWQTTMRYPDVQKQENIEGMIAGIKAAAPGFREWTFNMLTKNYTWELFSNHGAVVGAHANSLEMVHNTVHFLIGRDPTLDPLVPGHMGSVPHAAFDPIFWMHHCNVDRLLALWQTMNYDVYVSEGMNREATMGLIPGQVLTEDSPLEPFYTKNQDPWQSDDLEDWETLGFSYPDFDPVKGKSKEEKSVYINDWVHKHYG

Substance	IC50 (mushroom tyrosinase) [µM]	IC50 [1] [µM]	IC50 [2] [µM]
2-(1-(4-((1-((5-Hydroxy-4-oxo-4H-pyran-2-yl)methyl)-1H-1,2,3-triazol-5-yl)methoxy)-3-methylphenyl)ethylidene)hydrazinecarbothioamide [Compound 6x]	2.35 ± 0.021	159.2 ± 0.061	19.94 ± 0.081
2-(3-((1-((5-Hydroxy-4-oxo-4H-pyran-2-yl)methyl)-1H-1,2,3-triazol-5-yl)methoxy)benzylidene)hydrazinecarbothioamide [Compound 6l]	5.45 ± 0.077	81.67 ± 0.073	40.23 ± 0.071
2-(4-((1-((5-Hydroxy-4-oxo-4H-pyran-2-yl)methyl)-1H-1,2,3-triazol-5-yl)methoxy)-3-methoxybenzylidene)hydrazinecarbothioamide [Compound 6n]	8.4 ± 0.009	176.2 ± 0.061	44.4 ± 0.068
2-(4-((1-((5-Hydroxy-4-oxo-4H-pyran-2-yl)methyl)-1H-1,2,3-triazol-5-yl)methoxy)-3-methylbenzylidene)hydrazinecarbothioamide [Compound 6o]	12.38 ± 0.014	193.9 ± 0.022	17.95 ± 0.048
2-(4-((1-((5-Hydroxy-4-oxo-4H-pyran-2-yl)methyl)-1H-1,2,3-triazol-5-yl)methoxy)benzylidene)hydrazinecarbothioamide [Compound 6m]	1.58 ± 0.092	195 ± 0.038	36.17 ± 0.018
